What was measured:
Format in all cases: in vivo
Goose Grass = experiment: Pre-emergent herbicidal evaluation on Goose Grass (field plots, spray)
Description: (§1) Test compositions were prepared by dilution of a 65% water-soluble granule (65 WG) formulation of 2,4-dinitro-N^3,N^3-dipropyl-6-(trifluoromethyl)-1,3-benzenediamine in a spray tank that provided the appropriate application rate of 2,4-dinitro-N^3,N^3-dipropyl-6-(trifluoromethyl)-1,3-benzenediamine. Test compositions were also prepared by dilution of a 80% wettable powder (80 WP) formulation of N-[2,4-dichloro-5-[4-(difluoromethyl)-4,5-dihydro-3-methyl-5-oxo-1H-1,2,4-triazol-1-yl]phenyl]methanesulfonamide in a spray tank that provided the appropriate application rate of N-[2,4-dichloro-5-[4-(difluoromethyl)-4,5-dihydro-3-methyl-5-oxo-1H-1,2,4-triazol-1-yl]phenyl]methanesulfonamide. In addition, test compositions were prepared containing mixtures of a 65% water-soluble granule (65 WG) formulation of 2,4-dinitro-N^3,N^3-dipropyl-6-(trifluoromethyl)-1,3-benzenediamine and a 80% wettable powder (80 WP) formulation of N-[2,4-dichloro-5-[4-(difluoromethyl)-4,5-dihydro-3-methyl-5-oxo-1H-1,2,4-triazol-1-yl]phenyl]methanesulfonamide with water that provided the specified rates of the two herbicides.
(§2) The application of each test composition was performed with pressurized back-pack sprayers, calibrated to spray between 10 and 15 gallons per acre.
(§3) The experimental design used randomized plots with one pre-emergent treatment either the day of planting or the day after planting and four to eight replications per test trial. The size of each experimental plot was 6 feet by 30 feet.
Percent control of the weed (Goose Grass) was evaluated and averaged in each experimental plot at 14 days after treatment (DAT) of each test rate.
(§4) The results, shown as an average of the replications, were compared with results observed in untreated control plots in the same trials.

Barnyard Grass = experiment: Pre-emergent herbicidal evaluation on Barnyard Grass (field plots, spray)
Description: as §1, §2, §3
Percent control of the weed (Barnyard Grass) was evaluated and averaged in each experimental plot at 14 days after treatment (DAT) of each test rate.
as §4

Green Foxtail = experiment: Pre-emergent herbicidal evaluation on Green Foxtail (field plots, spray)
Description: as §1, §2, §3
Percent control of the weed (Green Foxtail) was evaluated and averaged in each experimental plot at 14 days after treatment (DAT) of each test rate.
as §4

Spurge = experiment: Pre-emergent herbicidal evaluation on Spurge (field plots, granular fertilizer compositions)
Description: Test compositions were prepared of i) a granular fertilizer and 2,4-dinitro-N^3,N^3-dipropyl-6-(trifluoromethyl)-1,3-benzenediamine, and ii) a granular fertilizer and N-[2,4-dichloro-5-[4-(difluoromethyl)-4,5-dihydro-3-methyl-5-oxo-1H-1,2,4-triazol-1-yl]phenyl]methanesulfonamide. The test compositions were prepared to provide the desired application rates of 2,4-dinitro-N^3,N^3-dipropyl-6-(trifluoromethyl)-1,3-benzenediamine and N-[2,4-dichloro-5-[4-(difluoromethyl)-4,5-dihydro-3-methyl-5-oxo-1H-1,2,4-triazol-1-yl]phenyl]methanesulfonamide. In addition, test compositions were prepared containing mixtures of 2,4-dinitro-N^3,N^3-dipropyl-6-(trifluoromethyl)-1,3-benzenediamine and N-[2,4-dichloro-5-[4-(difluoromethyl)-4,5-dihydro-3-methyl-5-oxo-1H-1,2,4-triazol-1-yl]phenyl]methanesulfonamide with granular fertilizer that provided the specified rates of the two herbicides.
The experimental design used randomized plots with one pre-emergent treatment either the day of planting or the day after planting and three to four replications per test trial. The size of each experimental plot was 6 feet by 30 feet.
Percent control of the weed (Spurge) was evaluated and averaged in each experimental plot at 70 days after treatment (DAT) of each test rate.
as §4

Annual Blue Grass = experiment: Pre-emergent herbicidal evaluation on Annual Blue Grass (field plots, spray)
Description: as §1, §2, §3
Percent control of the weed (Annual Blue Grass) was evaluated and averaged in each experimental plot at 14 days after treatment (DAT) of each test rate.
as §4

Johnson Grass = experiment: Pre-emergent herbicidal evaluation on Johnson Grass (field plots, spray)
Description: as §1, §2, §3
Percent control of the weed (Johnson Grass) was evaluated and averaged in each experimental plot at 14 days after treatment (DAT) of each test rate.
as §4

Cc1nn(-c2cc(NS(C)(=O)=O)c(Cl)cc2Cl)c(=O)n1C(F)F [A, N-[2,4-dichloro-5-[4-(difluoromethyl)-4,5-dihydro-3-methyl-5-oxo-1H-1,2,4-triazol-1-yl]phenyl]methanesulfonamide]
Control @ 14 DAT (Goose Grass; 0.06 lb AI/Acre): 49% | Control @ 14 DAT (Goose Grass; 0.12 lb AI/Acre): 69% | Control @ 14 DAT (Goose Grass; 0.19 lb AI/Acre): 77% | Control @ 14 DAT (Goose Grass; 0.25 lb AI/Acre): 79% | Control @ 14 DAT (Barnyard Grass; 0.06 lb AI/Acre): 55% | Control @ 14 DAT (Barnyard Grass; 0.12 lb AI/Acre): 80% | Control @ 14 DAT (Barnyard Grass; 0.19 lb AI/Acre): 88% | Control @ 14 DAT (Barnyard Grass; 0.25 lb AI/Acre): 93% | Control @ 14 DAT (Green Foxtail; 0.06 lb AI/Acre): 62% | Control @ 14 DAT (Green Foxtail; 0.12 lb AI/Acre): 76% | Control @ 14 DAT (Green Foxtail; 0.19 lb AI/Acre): 93% | Control @ 14 DAT (Green Foxtail; 0.25 lb AI/Acre): 97% | Control @ 70 DAT (Spurge; 0.125 lb AI/Acre): 0% | Control @ 70 DAT (Spurge; 0.250 lb AI/Acre): 6% | Control @ 70 DAT (Spurge; 0.375 lb AI/Acre): 6% | Control @ 14 DAT (Annual Blue Grass; 0.06 lb AI/Acre): 37% | Control @ 14 DAT (Annual Blue Grass; 0.12 lb AI/Acre): 47% | Control @ 14 DAT (Annual Blue Grass; 0.19 lb AI/Acre): 62% | Control @ 14 DAT (Annual Blue Grass; 0.25 lb AI/Acre): 60% | Control @ 14 DAT (Johnson Grass; 0.06 lb AI/Acre): 42% | Control @ 14 DAT (Johnson Grass; 0.12 lb AI/Acre): 67% | Control @ 14 DAT (Johnson Grass; 0.19 lb AI/Acre): 65% | Control @ 14 DAT (Johnson Grass; 0.25 lb AI/Acre): 70%

CCCN(CCC)c1c([N+](=O)[O-])cc(C(F)(F)F)c(N)c1[N+](=O)[O-] [B, 2,4-dinitro-N^3,N^3-dipropyl-6-(trifluoromethyl)-1,3-benzenediamine]
Control @ 14 DAT (Goose Grass; 0.12 lb AI/Acre): 76% | Control @ 14 DAT (Goose Grass; 0.25 lb AI/Acre): 99% | Control @ 14 DAT (Goose Grass; 0.50 lb AI/Acre): 100% | Control @ 14 DAT (Barnyard Grass; 0.12 lb AI/Acre): 63% | Control @ 14 DAT (Barnyard Grass; 0.25 lb AI/Acre): 69% | Control @ 14 DAT (Barnyard Grass; 0.50 lb AI/Acre): 86% | Control @ 14 DAT (Green Foxtail; 0.12 lb AI/Acre): 87% | Control @ 14 DAT (Green Foxtail; 0.25 lb AI/Acre): 91% | Control @ 14 DAT (Green Foxtail; 0.50 lb AI/Acre): 95% | Control @ 70 DAT (Spurge; 0.50 lb AI/Acre): 42% | Control @ 70 DAT (Spurge; 0.75 lb AI/Acre): 70% | Control @ 70 DAT (Spurge; 1.00 lb AI/Acre): 60% | Control @ 14 DAT (Annual Blue Grass; 0.12 lb AI/Acre): 45% | Control @ 14 DAT (Annual Blue Grass; 0.25 lb AI/Acre): 38% | Control @ 14 DAT (Annual Blue Grass; 0.50 lb AI/Acre): 58% | Control @ 14 DAT (Johnson Grass; 0.12 lb AI/Acre): 42% | Control @ 14 DAT (Johnson Grass; 0.25 lb AI/Acre): 48% | Control @ 14 DAT (Johnson Grass; 0.50 lb AI/Acre): 77%

Reference: patent US7851410B2, “Herbicidal composition” (FMC Corporation, priority 2006, dated 2010)
